In patent US5462954A, “Substituted phenyl phenol leukotriene antagonists” (Eli Lilly and Company, priority 1994, dated 1995):
Structures can show the parent of a compound that is named as a salt.

These molecules were tested against binding of tritiated LTB4 to guinea pig lung membranes (Cavia porcellus, UniProt H0VYV8) (assay: biochemical). Settings: inhibition of [3H]-LTB4 binding, guinea pig lung membranes; mean of n experiments; ~140 pM [3H]-LTB4, 45 minutes, 30° C., pH 6.5.
binding of tritiated LTB4 to guinea pig lung membranes, sequence (H0VYV8 1-348): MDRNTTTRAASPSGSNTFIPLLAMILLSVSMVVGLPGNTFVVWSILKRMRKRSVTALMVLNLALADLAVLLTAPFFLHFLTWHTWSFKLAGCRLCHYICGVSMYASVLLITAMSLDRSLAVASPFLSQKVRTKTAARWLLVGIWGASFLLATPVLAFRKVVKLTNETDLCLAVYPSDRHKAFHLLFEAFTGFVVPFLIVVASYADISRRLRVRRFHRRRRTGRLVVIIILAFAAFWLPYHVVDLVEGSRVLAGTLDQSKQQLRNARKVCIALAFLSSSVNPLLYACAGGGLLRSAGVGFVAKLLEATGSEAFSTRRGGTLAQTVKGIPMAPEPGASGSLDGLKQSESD

pKi (mean -log Ki) | Structure (SMILES)
7.67 | CCc1cc(-c2ccc(F)cc2)c(O)cc1OCCCOc1cccc(C(=O)c2ccccc2C(=O)O)c1 [Example 97, 2-[3-[3-[2-Ethyl-5-hydroxy-4-(4-fluorophenyl)phenoxy]propoxy]benzoyl]benzoic acid disodium salt hemihydrate]

Same assay, conditions: read-out: pKi (mean -log Ki) (converted)

Ki [nM] | Structure (SMILES)
9.33 | CCCc1c(OCCCOc2cc(O)c(-c3ccccc3)cc2CC)cccc1OC(C)C(=O)O (stereo not drawn) [Example 56, 2-[3-[3-[(5-Ethyl-2-hydroxy[1,1'-biphenyl]-4-yl)oxy]propoxy]-2-propylphenoxy]propanoic acid]
1.2 | CCCc1c(OCCCOc2cc(O)c(-c3ccccc3)cc2CC)ccc2c1OC(C(=O)O)CC2 (stereo not drawn) [Example 54, 7-[3-[(5-Ethyl-2-hydroxy[1,1'-biphenyl]-4-yl)oxy]propoxy]-3,4-dihydro-8-propyl-2H-1-benzopyran-2-carboxylic acid]
8.91 | CCc1cc(-c2ccc(F)cc2)c(O)cc1OCCCCc1ccccc1CCC(=O)O [Example 10, 3-(2-(4-(2-Ethyl-4-(4-fluorophenyl)-5-hydroxyphenoxy)butyl)phenyl)propionic acid]
5.13 | CCc1cc(-c2ccc(F)cc2)c(O)cc1OCCC=Cc1ccccc1CCC(=O)O [Example 9, 3-(2-(4-(2-Ethyl-4-(4-fluorophenyl)-5-hydroxyphenoxy)-(1-butenyl))phenyl)propionic acid]
0.024 | CCc1cc(-c2ccc(F)cc2)c(O)cc1OCCCOc1ccc2c(=O)c3cc(C(=O)O)ccc3oc2c1CCC(=O)O [Example 67, 3-[4-[7-Carboxy-9-oxo-3-[3-[2-ethyl-4-(4-fluorophenyl)-5-hydroxyphenoxy]propoxy]-9H-xanthene]] propanoic acid disodium salt trihydrate]
0.977 | CCc1cc(-c2ccc(F)cc2)c(O)cc1OCCCOc1cccc(O)c1CCC(=O)O [Example 13, 3-(2-(3-(2-Ethyl-4-(4-fluorophenyl)-5-hydroxyphenoxy)propoxy)-6-hydroxyphenyl)propionic acid]
3.47 | CCc1cc(-c2ccc(F)cc2)c(O)cc1OCCCOc1ccc2c(=O)c3ccccc3oc2c1CCC(=O)O [Example 68, 3-[4-[9-Oxo-3-[3-[2-ethyl-4-(4-fluorophenyl)-5-hydroxyphenoxy]propoxy]-9H-xanthene]]propanoic acid]
0.138 | CCc1cc(-c2ccc(F)cc2)c(O)cc1OCCCOc1cccc(Oc2ccc(C(=O)O)cc2)c1CCC(=O)O [Example 25, 3-(2-(3-(2-Ethyl-4-(4-fluorophenyl)-5-hydroxyphenoxy)propoxy)-6-(4-carboxyphenoxy)phenyl)propionic acid]
57.5 | CCc1cc(-c2ccccc2)c(O)cc1OCCCOc1cc(-c2ccccc2)ccc1CCC(=O)O [Example 62, 3-[3-(2-Ethyl-5-hydroxy-4-phenylphenoxy)propoxy][1,1'-biphenyl]-4-propanoicacid disodium salt monohydrate]
12.9 | CCc1cc(-c2ccc(F)cc2)c(O)cc1OCCCOc1ccc(NC(=O)CCCC(=O)N2CCOCC2)cc1CCC(=O)O [Example 69]
1.35 | CCCc1c(OCCCOc2cc(O)c(-c3ccc(F)cc3)cc2CC)cccc1[S+]([O-])c1ccccc1C(=O)O (stereo not drawn) [Example 81, 2-[2-Propyl-3-[3-[2-ethyl-4-(4-fluorophenyl)-5-hydroxyphenoxy]propoxy]phenylsulfinyl]benzoic acid]
53.7 | CCCCCC(C)(CCCCCOc1cc(O)c(-c2ccc(F)cc2)cc1CC)c1nnn[nH]1 (stereo not drawn) [Example 17, 6-Methyl-6-(1H-tetrazol-5-yl)-11-(2-ethyl-4-(4-fluorophenyl)-5-hydroxyphenoxy)undecane]
10.5 | CCCc1c(Cc2ccccc2C(=O)O)cccc1OCCCOc1cc(O)c(-c2ccc(F)cc2)cc1CC [Example 79, 2-[[2-Propyl-3-[3-[2-ethyl-5-hydroxy-4-(4-fluorophenyl)phenoxy]propoxy]phenyl]methyl]benzoic acid]
8.32 | CCc1cc(-c2ccc(F)cc2)c(O)cc1OCCCOc1cccc(OCCCCC(=O)N(C)C)c1CCC(=O)O [Example 3, 3-(2-(3-(2-Ethyl-4-(4-fluorophenyl)-5-hydroxyphenoxy)propoxy)-6-(4-dimethylaminocarbonylbutyloxy)phenyl)propionic acid]
1.35 | CCc1cc(-c2ccc(F)cc2)c(O)cc1OCCCOc1cccc(OCCCCc2nnn[nH]2)c1CCC(=O)O [Example 7, 3-(2-(3-(2-Ethyl-4-(4-fluorophenyl)-5-hydroxyphenoxy)propoxy)-6-(4-(1H-tetrazol-5-yl)butyloxy)phenyl)propionic acid]
8.13 | CCCc1c(OCCCOc2cc(O)c(-c3ccc(F)cc3)cc2CC)cccc1Oc1cccc(F)c1C(=O)O [Example 70, 2-Fluoro-6-[2-propyl-3-[3-[2-ethyl-5-hydroxy-4-(4-fluorophenyl)phenoxy]propoxy]phenoxy]benzoic acid disodium salt hydrate]
9.55 | CCc1cc(-c2ccc(F)cc2)c(O)cc1OCCCOc1ccccc1/C=C/C(=O)O [Example 87, 3-(2-(3-(2-Ethyl-4-(4-fluorophenyl)-5-hydroxyphenoxy)propoxy)phenyl)-E-propenoic acid]
1.51 | CCc1cc(-c2ccc(F)cc2)c(O)cc1OCCCOc1ccccc1CCC(=O)NS(C)(=O)=O [Example 19, N-Methanesulfonyl-3-(2-(3-(2-ethyl-4-(4-fluorophenyl)-5-hydroxyphenoxy)propoxy)phenyl)propionamide]
0.55 | CCc1cc(-c2ccc(F)cc2)c(O)cc1OCCCOc1cccc(OCCCCC(=O)O)c1CCC(=O)O [Example 5, 3-(2-(3-(2-Ethyl-4-(4-fluorophenyl)-5-hydroxyphenoxy)propoxy)-6-(4-carboxybutyloxy)phenyl)propionic acid]
30.2 | CCCCOc1cccc(OCCCOc2cc(O)c(-c3ccc(F)cc3)cc2CC)c1CCC(=O)O [Example 14, 3-(2-(3-(2-Ethyl-4-(4-fluorophenyl)-5-hydroxyphenoxy)propoxy)-6-(4-butyloxy)phenyl)propionic acid]
47.9 | CCCCc1cc(-c2ccc(F)cc2)c(O)cc1OCCCOc1ccccc1CCC(=O)O [Example 21, 3-(2-(3-(2-Butyl-4-(4-fluorophenyl)-5-hydroxyphenoxy)propoxy)phenyl)propionic acid]
51.3 | CCc1cc(-c2ccccc2)c(O)cc1OCCCOc1ccc2oc3ccccc3c2c1CCC(=O)O [Example 59, 3-[2-[3-[(5-Ethyl-2-hydroxy[1,1'-biphenyl]-4-yl)oxy]propoxy]-1-dibenzofuran]propanoic acid disodium salt]
0.245 | CCc1cc(-c2ccc(F)cc2)c(O)cc1OCCCCCC(c1ccc(OCC(=O)O)cc1)c1nn[nH]n1 (stereo not drawn) [Example 85, 1-(4-(Carboxymethoxy)phenyl)-1-(1H-tetrazol-5-yl)-6-(2-ethyl-4-(4-fluorophenyl)-5-hydroxyphenoxy)hexane]
5.5 | CCCc1c(CCC(=O)O)cccc1OCCCOc1cc(O)c(-c2ccc(F)cc2)cc1CC [Example 95, 3-(3-{3-[2-Ethyl-4-(4-fluorophenyl)-5-hydroxyphenyloxy]propoxy}-2-propylphenyl)propanoic acid]
12.3 | CCCc1c(OCCCOc2cc(O)c(-c3ccccc3)cc2CC)cccc1Oc1cccc(F)c1C(=O)O [Example 65, 2-Fluoro-6-[2-propyl-3-[3-(2-ethyl-5-hydroxy-4-phenylphenoxy)propoxy]phenoxy]benzoic acid disodium salt]

Structure (SMILES) | Ki [nM]
CCCc1c(OCCCCCOc2cc(O)c(-c3ccc(F)cc3)cc2CC)cccc1Oc1ccccc1C(=O)O [Example 72, 2-[2-Propyl-3-[5-[2-ethyl-5-hydroxy-4-(4-fluorophenyl)phenoxy]pentoxy]phenoxy]benzoic acid] | 6.61
CCCc1c(OCCCCOc2cc(O)c(-c3ccc(F)cc3)cc2CC)cccc1Oc1ccccc1C(=O)O [Example 73, 2-[2-Propyl-3-[4-[2-ethyl-5-hydroxy-4-(4-fluorophenyl)phenoxy]butoxy]phenoxy]benzoic acid sesquihydrate] | 17.8
CCCc1c(OCCCOc2cc(O)c(-c3ccc(F)cc3)cc2CC)cccc1Oc1ccccc1C(=O)O [sodium salt] | 5.62

The molecules below were run against T1, human synovial phospholipase A2 (PLA2) (Homo sapiens, UniProt P14555) (assay: in vitro inhibition of human synovial phospholipase A2 (PLA2)). Settings: not given.
T1 sequence (P14555 21-144): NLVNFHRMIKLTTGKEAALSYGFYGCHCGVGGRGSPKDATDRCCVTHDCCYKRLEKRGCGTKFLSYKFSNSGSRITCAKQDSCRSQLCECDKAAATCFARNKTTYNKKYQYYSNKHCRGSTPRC
Type: biochemical

Structure (SMILES) | inhibition of human synovial PLA2
CCCc1c(OCCCOc2cc(O)c(-c3ccccc3)cc2CC)cccc1OC(C)C(=O)O (stereo not drawn) [Example 56, 2-[3-[3-[(5-Ethyl-2-hydroxy[1,1'-biphenyl]-4-yl)oxy]propoxy]-2-propylphenoxy]propanoic acid] | in vitro inhibitors
CCc1cc(-c2ccccc2)c(O)cc1OCCCCCC(C)(C)c1nn[nH]n1.[Na] | in vitro inhibitors

These molecules were tested against T2, human cytosolic phospholipase A2 (PLA2) (Homo sapiens, UniProt P47712) (assay: in vitro inhibition of human cytosolic phospholipase A2 (PLA2)). Settings: not given.
T2 sequence (P47712 1-749): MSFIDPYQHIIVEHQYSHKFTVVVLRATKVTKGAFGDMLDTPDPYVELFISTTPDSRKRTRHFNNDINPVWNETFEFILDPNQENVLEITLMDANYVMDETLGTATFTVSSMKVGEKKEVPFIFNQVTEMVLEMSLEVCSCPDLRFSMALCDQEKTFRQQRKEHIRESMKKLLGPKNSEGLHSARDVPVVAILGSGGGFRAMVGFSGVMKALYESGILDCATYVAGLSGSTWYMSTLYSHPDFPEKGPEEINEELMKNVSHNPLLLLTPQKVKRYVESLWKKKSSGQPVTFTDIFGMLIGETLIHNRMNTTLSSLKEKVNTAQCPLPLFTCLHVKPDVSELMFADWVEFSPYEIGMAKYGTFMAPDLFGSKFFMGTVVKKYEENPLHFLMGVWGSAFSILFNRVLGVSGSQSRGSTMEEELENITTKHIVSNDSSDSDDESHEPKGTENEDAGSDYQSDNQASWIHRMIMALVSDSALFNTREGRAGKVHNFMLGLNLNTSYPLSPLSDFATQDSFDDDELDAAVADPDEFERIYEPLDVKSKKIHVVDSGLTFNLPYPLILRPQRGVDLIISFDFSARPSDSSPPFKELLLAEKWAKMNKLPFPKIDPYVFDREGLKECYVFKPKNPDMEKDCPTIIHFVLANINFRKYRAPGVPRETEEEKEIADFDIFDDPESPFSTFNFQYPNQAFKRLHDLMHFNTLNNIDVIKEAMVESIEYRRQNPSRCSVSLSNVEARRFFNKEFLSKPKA
Type: biochemical

Structure (SMILES) | inhibition of human cytosolic PLA2
CCCc1c(OCCCOc2cc(O)c(-c3ccccc3)cc2CC)cccc1OC(C)C(=O)O (stereo not drawn) [Example 56, 2-[3-[3-[(5-Ethyl-2-hydroxy[1,1'-biphenyl]-4-yl)oxy]propoxy]-2-propylphenoxy]propanoic acid] | in vitro inhibitors
CCc1cc(-c2ccccc2)c(O)cc1OCCCCCC(C)(C)c1nn[nH]n1.[Na] | in vitro inhibitors
